This passage reports IC50 results from BindingDB's records for doi:10.7270/Q21R6NZ6 (Emory University, 2008).

A value given as a limit tells only on which side of the number the result lay.

This assay addresses Mothers against decapentaplegic homolog 3 (Homo sapiens, UniProt P84022). Nature of the assay: Smad3 binding inhibitors, lysate ELISA, dose response, cell lysate, secondary confirmation, chemiluminescent ELISA, HEK293 lysate (AID 1058). Background: In an ELISA, binding on a coated surface is turned into a signal by an enzyme label.

Mothers against decapentaplegic homolog 3, sequence (P84022 whole entry): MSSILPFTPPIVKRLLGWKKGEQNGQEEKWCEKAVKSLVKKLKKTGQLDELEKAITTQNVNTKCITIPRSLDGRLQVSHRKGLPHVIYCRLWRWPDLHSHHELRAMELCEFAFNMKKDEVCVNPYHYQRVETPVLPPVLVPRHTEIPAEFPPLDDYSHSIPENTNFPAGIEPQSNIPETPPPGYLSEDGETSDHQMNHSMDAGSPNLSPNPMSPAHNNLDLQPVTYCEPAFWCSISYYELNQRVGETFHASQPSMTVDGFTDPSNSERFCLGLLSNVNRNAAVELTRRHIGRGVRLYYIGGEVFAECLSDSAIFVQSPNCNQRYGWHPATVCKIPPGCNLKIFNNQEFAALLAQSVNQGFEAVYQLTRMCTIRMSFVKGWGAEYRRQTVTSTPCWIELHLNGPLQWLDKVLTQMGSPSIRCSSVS

Consider `COC(=O)c1ccccc1C1c2ccc(O)c(O)c2OC2C(=O)C(=O)C=CC21` (stereo unspecified) [2-(3,4,5-trihydroxy-6-keto-8a,9-dihydroxanthen-9-yl)benzoic acid methyl ester], for which the IC50 (usually the concentration that gives 50% inhibition) was > 50 µM.
